In patent US20260176320A1, “MODULATORS OF G-PROTEIN COUPLED RECEPTORS” (priority 2018, published 2026):
Where two headings read alike, the source gives them in different places. Square brackets hold non-standard residues; d marks the D form. Peptide text beside a SMILES is read from it. * marks the point of attachment. X1 = O=C(CSCC(=O)*)NCCN1C(=O)c2ccccc2C1=O; X4 = CC(C)(C(=O)NCCN1C(=O)CSC1=O)C(=O)*; Aib = CC(C)(N)C(=O)O

Legend:
Format in all cases: cell-based
[1] = molecular target: T1, GLP-1R (Homo sapiens, UniProt P43220); assay: PathHunter β-arrestin assay
T1 sequence (P43220 24-463): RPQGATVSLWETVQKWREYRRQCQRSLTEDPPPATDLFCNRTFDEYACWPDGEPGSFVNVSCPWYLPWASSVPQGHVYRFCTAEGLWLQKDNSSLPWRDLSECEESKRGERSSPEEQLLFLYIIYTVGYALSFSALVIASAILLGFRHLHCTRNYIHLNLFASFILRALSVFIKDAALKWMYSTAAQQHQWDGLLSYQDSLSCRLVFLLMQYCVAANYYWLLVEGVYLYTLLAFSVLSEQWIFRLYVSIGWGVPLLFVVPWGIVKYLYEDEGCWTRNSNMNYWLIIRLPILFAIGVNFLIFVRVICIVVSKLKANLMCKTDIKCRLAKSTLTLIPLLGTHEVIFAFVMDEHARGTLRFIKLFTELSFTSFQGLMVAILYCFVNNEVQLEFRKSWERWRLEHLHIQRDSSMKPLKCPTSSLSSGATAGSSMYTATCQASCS
Summary of the method: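 Cells seeded overnight, then medium replaced with medium containing 0.2% BSA; agonists added as 22-point 2-fold DMSO dilution series in duplicate and incubated 90 min at 37 °C, 5% CO2. After addition of detection solution, plates sat 3 h at room temperature in the dark; luminescence read.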

[2] = molecular target: T2, GIP-R (Homo sapiens, UniProt P48546); assay: HitHunter cAMP assay (GIP-R); conditions: cAMP; for Emax: read-out: (Emax) GIP-R
T2 sequence (P48546 22-466): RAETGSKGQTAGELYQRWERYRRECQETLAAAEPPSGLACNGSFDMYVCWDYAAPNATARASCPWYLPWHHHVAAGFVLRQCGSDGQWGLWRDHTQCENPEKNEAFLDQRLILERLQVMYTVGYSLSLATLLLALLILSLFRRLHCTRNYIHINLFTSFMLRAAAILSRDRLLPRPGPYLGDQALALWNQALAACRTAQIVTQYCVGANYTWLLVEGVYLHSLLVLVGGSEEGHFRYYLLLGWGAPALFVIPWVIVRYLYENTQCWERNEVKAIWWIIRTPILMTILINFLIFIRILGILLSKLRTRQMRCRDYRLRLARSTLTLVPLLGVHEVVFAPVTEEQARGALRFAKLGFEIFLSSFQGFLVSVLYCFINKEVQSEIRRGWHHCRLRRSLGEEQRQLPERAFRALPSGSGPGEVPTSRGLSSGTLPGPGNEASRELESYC
Summary of the method: (§1)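 Suspension cells expressing each receptor (10,000 per well) in HBSS with 10 mM HEPES, 625 μM IBMX and 0.2% BSA were treated with a 22-point 2-fold agonist series in duplicate for 30 minutes at room temperature. cAMP was detected by antibody immunocompetition with luminescence read after overnight incubation.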

[3] = molecular target: T1, GLP-1R; assay: HitHunter cAMP assay (GLP-1R); conditions: cAMP; for Emax: read-out: (Emax) GLP-1R
Summary of the method: as §1

[4] = PathHunter β-arrestin assay, read-out: β-arrestin activity EC50
[5] = Table 3, read-out: EC50 GIP-R/nM
[6] = Table 3A, read-out: EC50 GIP-R/nM
[7] = Table 3, read-out: EC50 GLP-1R/nM
[8] = Table 3A, read-out: EC50 GLP-1R/nM

Structure (SMILES) | EC50 [1, 4] [nM] | Emax ([2]; Table 3) [%] | EC50 [2, 5] [nM] | Emax ([2]; Table 3A) [%] | EC50 [2, 6] [nM] | Emax ([3]; Table 3) [%] | EC50 [3, 7] [nM] | Emax ([3]; Table 3A) [%] | EC50 [3, 8] [nM] | EC50 [1] [nM] | EC50 ([2]; EC50 GIP-R/nM, Table 3) [nM] | EC50 ([2]; EC50 GIP-R/nM, Table 3A) [nM] | EC50 ([3]; EC50 GLP-1R/nM, Table 3) [nM] | EC50 ([3]; EC50 GLP-1R/nM, Table 3A) [nM]
CC[C@H](C)[C@H](NC(=O)[C@H](CO)NC(=O)[C@H](Cc1ccc(O)cc1)NC(=O)[C@H](CC(=O)O)NC(=O)[C@H](CO)NC(=O)[C@@H](NC(=O)[C@H](Cc1ccccc1)NC(=O)[C@@H](NC(=O)CNC(=O)[C@H](CCC(=O)O)NC(=O)C(C)(C)NC(=O)CCN1C(=O)CSC1=O)[C@@H](C)O)[C@@H](C)O)C(=O)N[C@@H](Cc1ccc(O)cc1)C(=O)N[C@@H](CC(C)C)C(=O)N[C@@H](CC(=O)O)C(=O)N[C@@H](CCCCN)C(=O)N[C@@H](CCC(N)=O)C(=O)N[C@@H](C)C(=O)N[C@@H](C)C(=O)NC(C)(C)C(=O)N[C@@H](CCC(=O)O)C(=O)N[C@@H](Cc1ccccc1)C(=O)N[C@H](C(=O)N[C@@H](CC(N)=O)C(=O)N[C@@H](Cc1c[nH]c2ccccc12)C(=O)N[C@@H](CC(C)C)C(=O)N[C@@H](CC(C)C)C(=O)N[C@@H](C)C(=O)NCC(=O)NCC(=O)N1CCC[C@H]1C(=O)N[C@@H](CO)C(=O)N[C@@H](CO)C(=O)NCC(=O)N[C@@H](C)C(=O)N1CCC[C@H]1C(=O)N1CCC[C@H]1C(=O)N1CCC[C@H]1C(=O)N[C@@H](CO)C(=O)N[C@@H](CCCCN)C(N)=O)C(C)C [Compound 130] | > 1000 | 64 | 1 to 10 | 64 | 1 to 10 | 114 | 0.1 to 1 | 114 | 0.1 to 1 |  |  |  |  | 
CC[C@H](C)[C@H](NC(=O)[C@H](CO)NC(=O)[C@H](Cc1ccc(O)cc1)NC(=O)[C@H](CC(=O)O)NC(=O)[C@H](CO)NC(=O)[C@@H](NC(=O)[C@H](Cc1ccccc1)NC(=O)[C@@H](NC(=O)CNC(=O)[C@H](CCC(=O)O)NC(=O)C(C)(C)C(=O)NCCN1C(=O)CSC1=O)[C@@H](C)O)[C@@H](C)O)C(=O)N[C@@H](Cc1ccc(O)cc1)C(=O)N[C@@H](CC(C)C)C(=O)N[C@@H](CC(=O)O)C(=O)N[C@@H](CCCCN)C(=O)N[C@@H](CCC(N)=O)C(=O)N[C@@H](C)C(=O)N[C@H](C(=O)NC(C)(C)C(=O)N[C@@H](CCC(=O)O)C(=O)N[C@@H](Cc1ccccc1)C(=O)N[C@H](C(=O)N[C@@H](CC(N)=O)C(=O)N[C@@H](Cc1c[nH]c2ccccc12)C(=O)N[C@@H](CC(C)C)C(=O)N[C@@H](CC(C)C)C(=O)N[C@@H](C)C(=O)NCC(=O)NCC(=O)N1CCC[C@H]1C(=O)N[C@@H](CO)C(=O)N[C@@H](CO)C(=O)NCC(=O)N[C@@H](C)C(=O)N1CCC[C@H]1C(=O)N1CCC[C@H]1C(=O)N1CCC[C@H]1C(=O)N[C@@H](CO)C(=O)N[C@@H](CCCCN)C(N)=O)[C@@H](C)CC)C(C)C [Compound 132] (X4-EGTFTSDYSIYLDKQAV[Aib]EFINWLLAGGPSSGAPPPSK-NH2) | 10 to 1000 | 61 to 64 | 1 to 10 | 61 to 64 | 1 to 10 | 103 to 114 | < 0.1 | 103 to 114 | < 0.1 |  |  |  |  | 
CC[C@H](C)[C@H](NC(=O)[C@H](CO)NC(=O)[C@H](Cc1ccc(O)cc1)NC(=O)[C@H](CC(=O)O)NC(=O)[C@H](CO)NC(=O)[C@@H](NC(=O)[C@H](Cc1ccccc1)NC(=O)[C@@H](NC(=O)CNC(=O)[C@H](CCC(=O)O)NC(=O)CSCC(=O)NCCN1C(=O)c2ccccc2C1=O)[C@@H](C)O)[C@@H](C)O)C(=O)N[C@@H](Cc1ccc(O)cc1)C(=O)N[C@@H](CC(C)C)C(=O)N[C@@H](CC(=O)O)C(=O)N[C@@H](CCCCN)C(=O)N[C@@H](CCC(N)=O)C(=O)N[C@@H](C)C(=O)N[C@H](C(=O)NC(C)(C)C(=O)N[C@@H](CCC(=O)O)C(=O)N[C@@H](Cc1ccccc1)C(=O)N[C@H](C(=O)N[C@@H](CC(N)=O)C(=O)N[C@@H](Cc1c[nH]c2ccccc12)C(=O)N[C@@H](CC(C)C)C(=O)N[C@@H](CC(C)C)C(=O)N[C@@H](C)C(=O)NCC(=O)NCC(=O)N1CCC[C@H]1C(=O)N[C@@H](CO)C(=O)N[C@@H](CO)C(=O)NCC(=O)N[C@@H](C)C(=O)N1CCC[C@H]1C(=O)N1CCC[C@H]1C(=O)N1CCC[C@H]1C(=O)N[C@@H](CO)C(=O)N[C@@H](CCCCN)C(N)=O)[C@@H](C)CC)C(C)C [Compound 133] (X1-EGTFTSDYSIYLDKQAV[Aib]EFINWLLAGGPSSGAPPPSK-NH2) |  | 104 |  | 104 |  | 98 |  | 98 |  | > 1000 | 0.1 to 1 | 0.1 to 1 | 1 to 10 | 1 to 10
